Source: ChEMBL document CHEMBL3507680, “University of Dundee, Gates Library screen for HepG2 cell viability”

experiment: Human HepG2 cell viability assay in 384 well format; assay type: toxicity, cell-based; parameters: dose 125 nL, time 70.5 hour; concentration not given beside the values; conditions: HepG2 cells, read-out: Inhibition

| SMILES | cytotoxicity at 70.5 h [%] |
| --- | --- |
| O=C(c1cccc(OCc2cscn2)c1)N1CCOCC1 | 0.0866 |
| CN(C)C(=O)CN1CCCN(CC2CCOc3ccccc3C2)CC1 (stereo not drawn) | -11.2 |
| COc1nc2c(cc1C(=O)N1CCCOC(CN3CCCC3)C1)CCC2 (stereo not drawn) | -13.7 |
| COc1cccc(OCc2nnc3n2N=C(C(C)(C)C)CS3)c1 | -8.92 |
| COCCC(=O)N1CCC(Nc2ncc(Cl)cn2)CC1 | 0.73 |
| CCCn1cnnc1CNC(=O)CC1C(=O)NCCN1CC(C)(C)C (stereo not drawn) | -12.5 |
| O=C1CC[C@@H](C(=O)N2CCC(Cn3cc(C4CCCCC4)nn3)CC2)N1 | -1.59 |
| O=C(CCNS(=O)(=O)c1ccccc1)N1CCOC(c2ccccc2)C1 (stereo not drawn) | -18 |
| CC(C)c1nnc2n1CCN(C(C(N)=O)c1ccc(F)cc1)C2 (stereo not drawn) | -21.3 |
| CCN(CC)Cc1ccccc1NC(=O)N(C)Cc1ccccc1O | -6.5 |
| CCC(C)NC(=O)c1coc(COc2cccc(F)c2)n1 (stereo not drawn) | -3.12 |
| Cc1cc(C(=O)NC(C)c2nnn[nH]2)c2ccc(C)c(C)c2n1 (stereo not drawn) | 34.8 |
| O=C(O)CCc1cc2n(n1)CCN(Cc1ccc3[nH]ccc3c1)C2 | -2.66 |
| CCOC(=O)NCC(=O)Nc1nc2ccccc2n1C(C)(C)C | 5.06 |
| O=S(=O)(Cc1ccon1)N1CCN(c2ccncc2Cl)CC1 | -11.7 |
| Cc1cc(C(F)(F)F)nn1CCCNC(=O)C1CCC1 | -4.63 |
| Cc1cc(CN(CCCO)c2ccccc2)on1 | -0.833 |
| c1nc(CSc2nnc(C3CC3)s2)cs1 | 1.83 |
| Cc1cc(C)n(CC2CN(CC(=O)NC3CCOCC3)CCO2)n1 (stereo not drawn) | 15.9 |
| Cn1nc2c(cc1=O)CN(Cc1coc(-c3ccccc3)n1)CC2 | 0.822 |
| CCCS(=O)(=O)NCC1CCOc2ccccc2C1 (stereo not drawn) | -1.69 |
| O=C(Nc1cccc2ccccc12)N1CCC(N2CCSCC2)CC1 | -0.0142 |
| CS(=O)(=O)N1CCC(C(=O)N2CCC(Cn3cccn3)CC2)CC1 | -12.3 |

| SMILES | cytotoxicity at 70.5 h [%] |
| --- | --- |
| CCOC(=O)[C@]12CCCN(Cc3nccs3)C[C@H]1CN(CC(C)C)C2 | -3.1 |
| Cc1cc(C2CCC2)nc(N2CCN(Cc3nccn3C)CC2)n1 | -1.45 |
| Cn1c(C2CC2)nc2c1CCN(Cc1nc3ccccc3s1)C2 | 23.2 |
| Cc1cccc(CN2C(=O)CC[C@H]3[C@@H]2CCN3CC(=O)N(C)C)n1 | -7.14 |
| COCCN1CCC(Nc2ccc(C#N)cc2F)CC1 | -13.7 |
| CCc1nnsc1C(=O)NCC1CN(CC(C)C)CCO1 (stereo not drawn) | 22.5 |
| COc1c(C)cnc(CSc2nnc(NC3CC3)s2)c1C | -1.65 |
| CC(C)n1[nH]c(=O)c2c1NC(=O)CSC2c1cccc(OCC(N)=O)c1 (stereo not drawn) | -11.3 |
| Cc1cccc(CN2C(=O)CCC23CCN(Cc2cccn2C)CC3)n1 | -3.65 |
| c1cnn(CCNCc2nnc(C3CC3)o2)c1 | 48.9 |
| COCCO[C@H]1CCN(C(=O)c2ccsc2)[C@H]1Cc1ccncc1 | -9.1 |
| CCC(Nc1nc(C(F)(F)F)nc2ccccc12)C(=O)O (stereo not drawn) | 2.5 |
| Cc1cccc(CN2CCN(c3ncnc4[nH]cnc34)CC2CCO)n1 (stereo not drawn) | 9.72 |
| Cc1cc(CC(=O)NC2CCCN(Cc3ccccc3)C2=O)n[nH]1 (stereo not drawn) | -21.2 |
| Cc1cc(C)c(CNC(=O)NCC2Cc3ccccc32)c(=O)[nH]1 (stereo not drawn) | -12 |
| COc1ccc(N(c2ccc(OC)cc2)c2ccc(C(=O)O)s2)cc1 | -3.85 |
| CC(=O)N(Cc1ncc(C)o1)C1CCN(CCn2cccn2)C1 (stereo not drawn) | 9.96 |
| Cc1ccc(C)c(C(NC(=O)C2CC2)c2cccnc2)c1 (stereo not drawn) | -1.23 |
| Cc1nc(CN(C)C)cc(N2CCCC(COc3ccc(F)cc3)C2)n1 (stereo not drawn) | -5.18 |
| Cc1ccc(-c2nnc(C(C)N3CCc4cncnc4C3)o2)cc1 (stereo not drawn) | 1.38 |
| C[C@@H]1CN(Cc2ccsc2)C[C@]12CCN(Cc1cccnc1)C2=O | 39 |
| O=c1c(Cc2ccc(Cl)cc2Cl)c(O)ccn1CC1CC1 | -5.97 |
| Cc1ccc(-c2cnnc(NCC3(N4CCOCC4)CCCC3)n2)o1 | -8.14 |

| SMILES | cytotoxicity at 70.5 h [%] |
| --- | --- |
| Cc1cc(C(=O)Nc2ccc(OCC3CCOCC3)cc2)[nH]n1 | 1.95 |
| CN(C)C(=O)C1(C)CN(Cc2cn(C)c3ccc(F)cc23)CCO1 (stereo not drawn) | 9.86 |
| CCN(CC)CCn1cnc(-c2ccccc2)c1-c1cnn(CC)c1 | -10.7 |
| C=CNC(=O)c1nnc2ccc(N3CCOCC3)cc2n1 | -10.8 |
| CN1CC(=O)N(c2ccsc2)CC12CCN(C(=O)N1CCCC1)C2 (stereo not drawn) | -7.42 |
| Cc1nc(N2CCOCC2)nc2c1CCN(Cc1ccsc1)CC2 | 1.35 |
| O=C(C1CCC1)N1CCc2onc(Cn3cccn3)c2C1 | 17.9 |
| CC(C)N1CCCC2(CCN(C(=O)CCCn3ccnc3)C2)C1=O (stereo not drawn) | -12.1 |
| COCCC1(CNC(=O)Nc2ccnc(C)c2)CCCC1 | -20.4 |
| Cc1ccc(C)c(CNC(=O)NC(C)(C(=O)O)c2ccco2)c1 (stereo not drawn) | 2.89 |
| COCc1cn(C2CCN(C(=O)c3ccc(F)c(C)c3)CC2)nn1 | -6.36 |
| CN(C)C1CCCN(C(=O)c2cccc(-c3ncc[nH]3)c2)CC1 (stereo not drawn) | -1.63 |
| COCCN1C[C@H]2CC[C@@H]1CN(Cc1nc3ccccc3n1C)C2 | -6.43 |
| Cc1ccc(C(=O)NC2CC2)c(-n2cnnn2)c1C | -17.7 |
| Cc1nc(CN2CCCn3c(nc(Cn4cncn4)cc3=O)C2)cs1 | 22.5 |
| O=C(c1cc(=O)n(-c2ccccc2)[nH]1)N1CCCC(c2ccn[nH]2)C1 (stereo not drawn) | 48 |
| CS(=O)(=O)N1CCC(Oc2ccc(C(=O)NC3CCCC3)cc2Cl)CC1 | -7.15 |
| Cc1cccc2nc(CNC(=O)N3CCC(OCC4CC4)CC3)cn12 | 24.4 |
| Cc1ccc(C2CN(c3nnc(C(F)F)s3)CCO2)c(C)c1 (stereo not drawn) | -4.44 |
| N#CCCN(CCC#N)C(=O)c1ccc(COc2ccccc2C#N)o1 | 6.22 |
| Cn1cnc2c(N3CCCC3)nc(C3CCNCC3)cc21 | -17 |
| O=C(c1ccc(Cn2cnnn2)cc1)N1CC[C@H](CO)[C@H](O)C1 | -8.21 |
| CNC(=O)[C@@H]1C[C@@H](NC(=O)Cc2nonc2C)CN1Cc1sccc1C | 1.29 |

| SMILES | cytotoxicity at 70.5 h [%] |
| --- | --- |
| CN(C)CCN1C[C@@H]2CN(S(=O)(=O)c3ccccc3)C[C@@H]2C1=O | -0.863 |
| O=C(O)c1ccn(-c2ccccc2NS(=O)(=O)c2cccc(Cl)c2F)n1 | -7.81 |
| Cc1occc1C(=O)N1C[C@@H]2CN(S(C)(=O)=O)CCO[C@@H]2C1 | 46.9 |
| Cn1ccnc1CN1CCCN(C(=O)c2ccc3[nH]nnc3c2)CC1 | -4.07 |
| COCCN1CCC2(COCc3cnc(N(C)C)nc32)C1 (stereo not drawn) | -2.9 |
| O=C(NC1CCCC1)c1nc2c(o1)CN(C(=O)CO)C2 | -1.18 |
| CCc1nc(C2CCCN(C(=O)C3=NN(CC)C(=O)CC3)C2)no1 (stereo not drawn) | -13.2 |
| NC(=O)CCC1CCCN(c2ccc3c(Cl)ccnc3c2F)C1 (stereo not drawn) | -6.43 |
| C[C@@H](NCc1cccc(Cl)c1)c1onc(-c2ccccc2)c1C(=O)O | -3.56 |
| CN(C(=O)NCc1nccn1CCc1ccccc1)C1CCC1 | 1.68 |
| Cc1cccc(CO[C@@H]2CO[C@@]3(CCN(S(=O)(=O)N(C)C)C3)C2)n1 | -4.3 |
| c1csc(CN(Cc2ccsc2)CC2CCCO2)n1 (stereo not drawn) | -1.84 |
| Cc1nc(Cn2c3c(ccc2=O)CCN(CC2CCC2)CC3)cs1 | -9.15 |
| COc1cccc(CCC(=O)Nc2ccn(C)n2)c1OC | -10 |
| Cc1nsc(NC(=O)NC2(CN3CCOCC3)CCCCC2)n1 | 1.42 |
| CN(Cc1nc(C(F)(F)F)cs1)C(=O)CCc1cccnc1 | -10.4 |
| O=C(C1CCCO1)N1CCc2onc(-c3ccc(Cl)cc3)c2C1 (stereo not drawn) | 16.8 |
| O=C(c1ccco1)N1CCC(n2cc(-c3ccsc3)nn2)CC1 | -5.81 |
| CCC(CC)(CNC(=O)OC(C)(C)C)NC(=O)C1CCOCC1 | -5.37 |
| c1cc(CNCc2ccnc(N3CCCC3)c2)c2c(c1)OCCCO2 | -10 |
| Cc1nc(COC[C@@H]2CC[C@H]3[C@H](CCN3S(C)(=O)=O)O2)cs1 | -11.7 |
| CC(C)(C)c1ccn(C2(C(=O)O)CCN(c3nccc(N)n3)CC2)n1 | -3.64 |
| CC(Cn1cccn1)n1cnc2cccc(F)c2c1=O (stereo not drawn) | -7.35 |

| SMILES | cytotoxicity at 70.5 h [%] |
| --- | --- |
| CC(=O)N1CCCN(C(=O)C(C)n2cncn2)CC1 (stereo not drawn) | -3.53 |
| CS(=O)(=O)NCCCNC(=O)c1cnc(-c2ccsc2)s1 | -6.18 |
| COc1ccc2c(C)nc(N3C[C@@H](C)O[C@@H](C)C3)nc2c1 | -16.1 |
| COc1ccc(C(=O)Nc2cccc(C(N)=O)c2)c(OC)n1 | 9.82 |
| Cc1csc(C(=O)N2CCCC(c3[nH]ncc3S(C)(=O)=O)C2)c1 (stereo not drawn) | -0.679 |
| NC(=O)CCSc1ccccc1NCc1ccc(Cl)s1 | -95 |
| CC(C)N1CCO[C@H]2CN(C(=O)c3ccncc3F)C[C@H]21 | -4.09 |
| Cc1ccc(CNC(=O)NCc2cccnc2N(C)C)s1 | -14.6 |
| Cc1ccc2c(n1)N(CCN(C)C)CCN(C(=O)c1cscn1)C2 | -7.14 |
| CC(C)OCCS(=O)(=O)N1CCN(Cc2cccn2C)CC1 | -8.85 |
| CN1CCCc2c1nc1c(c2N)CCC1 | -7.63 |
| CCc1csc(C2CCCN(C(=O)c3cc(C4CC4)[nH]n3)C2)n1 (stereo not drawn) | -7.48 |
| CCC(CC)NC(=O)c1nc2n(n1)-c1ccccc1S(=O)(=O)N2 | -82.7 |
| Cc1nc(-c2ccc(CC(=O)N3CCNC(=O)C3)cc2)cs1 | 9.75 |
| CCN(CC)c1ccc2ccc(C(=O)N(CCOC)CCOC)cn12 | -0.14 |
| CC(C)NC(=O)CN(C)C1CCN(c2ccc(C#N)cn2)CC1 | 0.463 |
| Cn1cc(N2C[C@@H]3CN(Cc4ccoc4)C[C@@H]3C2=O)cn1 | -2.46 |
| NC(=O)N1CCCC(c2nc(-c3cccnn3)no2)C1 (stereo not drawn) | -5.18 |
| Cc1ccc(OCCN(C)C(=O)NC(C)c2nncn2C)cc1 (stereo not drawn) | -5.04 |
| Cc1cnn(CCCOc2ccc3c(c2)OCO3)c1 | -0.603 |
| CC(=O)N1C[C@@H](F)[C@@H](OCc2nc3ccccc3o2)C1 | -3.68 |
